Values of other authors as cited in patent publication US20220288013A1, “1,8-CINEOL COATED IMPLANTS” (THE BOARD OF TRUSTEES OF THE LELAND STANFORD JUNIOR …, priority 2019, published 2022).

Legend:
[1] = system: WNT/β-catenin pathway; details: permanent HNSCC cell lines
[2] = system: Wnt11; details: HNSCC cell lines
[3] = system: head and neck squamous cell carcinoma (HNSCC) cell lines; details: exposure of different cell lines; permanent HNSCC cell lines

**Q.** What does the source list for CC12CCC(CC1)C(C)(C)O2 [1,8-cineol, 1,3,3-Trimethyl-2-oxabicyclo[2.2.2]octane]?
**A.** activity of the WNT/β-catenin pathway (canonical pathway), especially of Wnt11 [1]: decrease the activity of the WNT/β-catenin pathway; expression of Wnt11 [2]: reduces expression of Wnt11; proliferation [3]: inhibit proliferation
